Results on 5 compounds are retold here after EP4722195A1, “PH-SENSITIVE CATIONIC LIPID AND LIPID NANOPARTICLES” (National University Corporation Hokkaido University, priority 2023, dated 2024).

Data set [1] in a line: Average particle size and polydispersity index of lipid nanoparticles (dynamic light scattering). Type of data set: physicochemical. The protocol:
(§1) The average particle size (number average value), ζ-average particle size, and polydispersity index (PdI) of the lipid nanoparticles in PBS(-) (pH 7.4), and the zeta potential in 10 mM HEPES buffer (pH 7.4) were measured using an analyzer "Zetasizer Nano ZS ZEN3600" (manufactured by Malvern) utilizing dynamic light scattering.

Data set [2] can be described thus: Encapsulation rate of lipid nanoparticles (Ribogreen). The class given is physicochemical. The protocol:
The encapsulation rate of the lipid nanoparticles was determined by measuring the amount of encapsulated nucleic acid (mRNA) using Ribogreen (manufactured by Life Technologies), which is an RNA intercalator. The mRNA amount was quantified based on a calibration curve prepared from a series of diluted mRNA solutions at known concentrations.
Specifically, 10 mM HEPES buffer (pH 7.4), 10 w/v% Triton X-100, and Ribogreen were mixed at 978.8 µL, 20 µL, and 1.25 µL per 10 wells, respectively, to obtain a Triton(+) buffer. A Triton(-) buffer was obtained in replacing Triton X-100 with 10 mM HEPES buffer (pH 7.4). 100 µL/well of the sample was added to a black 96-well plate for fluorescence measurement, and 100 µL/well of Triton(+) buffer or Triton(-) buffer was added. After the plate was gently shaken on a shaking incubator (SI-300, manufactured by AS ONE) (700 rpm, 30 seconds), the fluorescence intensity of each well was measured using a microplate reader (VARIOSKAN LUX, manufactured by Thermo Fisher Scientific) (wavelength Ex/Em=500 nm/525 nm), and the nucleic acid encapsulation rate (%) was calculated.

Data set [3] is described as follows: Zeta potential of lipid nanoparticles. The class given is physicochemical. Here is the method:
as §1

Data set [4] in a line: Apparent pKa of lipid nanoparticles (TNS).
Setting [5] is: Table 4, Fluc mRNA-loaded lipid nanoparticles, TxT-5-5A14/DSPC/chol/PEG-DMG=50/3/47/1.5, SM-102, ALC-0315 or MC3/DSPC/chol/PEG-DMG=50/10/40/1.5 (mol%).
Where [6] appears, read: Table 1, Fluc mRNA-loaded lipid nanoparticles, TxT/DSPC/chol/PEG-DMG=50/15/35/1.5 (mol%).
[7] abbreviates: Table 7, hEPO mRNA-loaded lipid nanoparticles, TxT/DSPC/chol/PEG-DMG=50/3/47/1.5, SM-102/DSPC/chol/PEG-DMG=50/10/40/1.5 (mol%).

For orientation: pKa means the negative logarithm of the acid dissociation constant.

With `CCCCCCCCC(CCCCCC)C(=O)OCCCCCCN(CCCCO)CCCCCCOC(=O)C(CCCCCC)CCCCCCCC` (centres unmarked) [ALC-0315, reference compound], in data set [1] (setting [5]), the Pdl is 0.13, the “number average particle size” value worked out at 57.0 nm and the ζ-average particle size is 86.0 nm. In data set [2] (setting [5]), the mRNA concentration is listed as 0.025 µg/µL and the mRNA encapsulation rate is on record as 98.4%. Further, the ζ-potential in data set [3] (setting [5]) was -2.1 mV. For the same compound, the pKa in data set [4] (setting [5]) was found to be 6.27.

With `CCCCC(CC)CNC(=O)CCCC(=O)OCC(COC(=O)CCCC(=O)NCC(CC)CCCC)(COC(=O)CCCC(=O)NCC(CC)CCCC)NC(=O)CCN1CCCCC1` (stereo not drawn) [TxT-5-5A8β, 2-(((5-((2-ethylhexyl)amino)-5-oxopentanoyl)oxy)methyl)-2-(3-(piperidin-1-yl)propanamido)propane-1,3-diyl bis(5-((2-ethylhexyl)amino)-5-oxopentanoate)], in data set [1] (setting [6]), the Pdl is given as 0.30, the “number average particle size” value was found to be 110.3 nm and the ζ-average particle size was found to be 255.9 nm. In data set [2] (setting [6]), this compound gave a mRNA concentration of 0.009 µg/µL and a mRNA encapsulation rate of 73.4%. This compound gave a ζ-potential in data set [3] (setting [6]) of -18.0 mV.

In the case of `CCCCN(CCCC)C(=O)CCCC(=O)OCC(COC(=O)CCCC(=O)N(CCCC)CCCC)(COC(=O)CCCC(=O)N(CCCC)CCCC)NC(=O)CCN1CCCCC1` [TxT-5-5A8, 2-(((5-(dibutylamino)-5-oxopentanoyl)oxy)methyl)-2-(3-(piperidin-1-yl)propanamido)propane-1,3-diyl bis(5-(dibutylamino)-5-oxopentanoate)], in data set [1] (setting [6]), the Pdl is 0.19, the “number average particle size” value was 61.6 nm and the ζ-average particle size is on record as 92.9 nm. Also, in data set [2] (setting [6]), the mRNA concentration came out at 0.005 µg/µL and the mRNA encapsulation rate turned out to be 23.7%. The compound also showed a ζ-potential in data set [3] (setting [6]) of -5.3 mV.

On to `CCCCCN(CCCCC)C(=O)CCCC(=O)OCC(COC(=O)CCCC(=O)N(CCCCC)CCCCC)(COC(=O)CCCC(=O)N(CCCCC)CCCCC)NC(=O)CCN1CCCCC1` [TxT-5-5A10, 2-(((5-(dipentylamino)-5-oxopentanoyl)oxy)methyl)-2-(3-(piperidin-1-yl)propanamido)propane-1,3-diyl bis(5-(dipentylamino)-5-oxopentanoate)], for which, in data set [1] (setting [6]), the Pdl is 0.42, the “number average particle size” value was found to be 213.0 nm and the ζ-average particle size is given as 426.0 nm. In data set [2] (setting [6]), this compound gave a mRNA concentration of 0.012 µg/µL and a mRNA encapsulation rate of 56.5%. In data set [3] (setting [6]), this compound came in with a ζ-potential of -36.4 mV. In addition, the pKa in data set [4] (Table 1, apparent pKa of Fluc mRNA-loaded lipid nanoparticles, TxT/DSPC/chol/PEG-DMG=50/15/35/1.5 (mol%)) is listed as 7.94.

As to `CCCCCCCCCCCOC(=O)CCCCCN(CCO)CCCCCCCC(=O)OC(CCCCCCCC)CCCCCCCC` [SM-102, reference compound], the figures for the Pdl in data set [1] (setting [5]) and in data set [1] (setting [7]) were 0.21 and 0.19, respectively. Also, the “number average particle size” value came out at 42.0 nm in data set [1] (setting [5]) and 38.6 nm in data set [1] (setting [7]). Further, the ζ-average particle size in data set [1] (setting [5]) is on record as 70.4 nm; in data set [1] (setting [7]) it was 78.8 nm. For the same compound, the values for the mRNA concentration in data set [2] (setting [5]) and in data set [2] (setting [7]) were 0.018 µg/µL and 0.015 µg/µL, respectively. The mRNA encapsulation rate in data set [2] (setting [5]) is given as 99.6%; in data set [2] (setting [7]) it was 97.5%. The ζ-potential in data set [3] (setting [5]) is -11.0 mV; in data set [3] (setting [7]), 0.0 mV.
